This note sets out measurements from US6951655B2, “Pro-micelle pharmaceutical compositions” (IMI Biomed, Inc., priority 2001, dated 2005).

Assay [1] relates to rabbits. As to the kind of experiment: Blood glucose in rabbits after i.v. injection before glucose challenge. It counts as in vivo, rabbit. As for the experimental part:
FIG. 11 depicts blood glucose levels when a standard regular insulin (0.2 ml of 3.1 IU/ml) or an extraction of the pro-micelle (1.5 ml. of 0.4 IU/ml) was intravenously (i.v.) injected into rabbits one minute before a glucose challenge of 250 mg/kg. […] With the formulation of the invention, a hypoglycemic effect was noticed within 35 minutes, and lasted for the duration of the experiment of 120 minutes or more.

Assay [2] deals with rabbits. As to the kind of experiment: Blood glucose in rabbits after i.p. administration before glucose challenge. It is filed as in vivo, rabbit. The note with it: i.p. 15 minutes before glucose challenge of 250 mg/kg, FIG. 10. The method, then:
FIG. 10 depicts blood glucose when a standard regular insulin solution (0.3 ml of 3.1 IU/ml) or an extraction of the pro-micelle (2.5 ml of 0.4 IU/ml) was administered intraperitonally (i.p.) to rabbits 15 minutes before a glucose challenge of 250 mg/kg.

In the case of “standard regular insulin: Standard regular insulin solution, 3.1 IU/ml, comparator”, the “duration of hypoglycemic effect” value with rabbits [1] (i.v.) is “short in duration”. Moreover, the “blood glucose course after i.v. injection” value in the assay with rabbits [1] (i.v. one minute before glucose challenge of 250 mg/kg, FIG. 11) is recorded as “rapidly decreased from 20 to 45 minutes”. In addition, the “blood glucose relative to control level within 90 minutes of injection” value in the assay with rabbits [1] (i.v., within 90 minutes of the insulin injection) is listed as 10-30 % of the control level. In addition, the “effect on blood sugar after i.p. injection” value in the assay on rabbits [2] was “decreased blood sugar”.
